Reference: ChEMBL document CHEMBL3044973, “Substituted 9-aryl-1,8-acridinedione derivatives and their effects on potassium channels” (Med Chem Res, 2009)

Experiments:
Conditions in all cases: Aorta
[1] = molecular target: T1, Potassium channel protein (Rattus norvegicus) (UniProt Q6I9B6); experiment: Activation of potassium channel in Rattus norvegicus (rat) aortic rings assessed as inhibition of phenylepinephrine-induced contractile response in presence of ATP-sensitive potassium channel inhibitor glibenclamide
T1 sequence (whole entry): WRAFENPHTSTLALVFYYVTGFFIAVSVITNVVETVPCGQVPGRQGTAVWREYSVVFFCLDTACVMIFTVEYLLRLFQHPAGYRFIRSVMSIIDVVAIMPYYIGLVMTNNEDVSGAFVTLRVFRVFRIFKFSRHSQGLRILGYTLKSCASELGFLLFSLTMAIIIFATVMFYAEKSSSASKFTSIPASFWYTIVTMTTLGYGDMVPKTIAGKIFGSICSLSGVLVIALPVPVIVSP

[2] = molecular target: T1, Potassium channel protein (Rattus norvegicus); experiment: Activation of potassium channel in Rattus norvegicus (rat) aortic rings assessed as inhibition of phenylepinephrine-induced contractile response relative to control
[3] = molecular target: T1, Potassium channel protein (Rattus norvegicus); experiment: Activation of potassium channel in Rattus norvegicus (rat) aortic rings assessed as inhibition of phenylepinephrine-induced contractile response in presence of calcium activated potassium channel inhibitor TEA
[4] = molecular target: T1, Potassium channel protein (Rattus norvegicus); experiment: Activation of potassium channel in Rattus norvegicus (rat) aortic rings assessed as inhibition of phenylepinephrine-induced contractile response in presence of ATP-sensitive potassium channel inhibitor glibenclamide relative to control
[5] = molecular target: T1, Potassium channel protein (Rattus norvegicus); experiment: Activation of potassium channel in Rattus norvegicus (rat) aortic rings assessed as inhibition of phenylepinephrine-induced contractile response
[6] = molecular target: T1, Potassium channel protein (Rattus norvegicus); experiment: Activation of potassium channel in Rattus norvegicus (rat) aortic rings assessed as inhibition of phenylepinephrine-induced contractile response in presence of calcium activated potassium channel inhibitor TEA relative to control

SMILES | Activity [1] | Emax [2] [%] | Activity [3] | Emax [4] [%] | Activity [5] | pD2 [5] | Emax [6] [%]
CC1CC(=O)C2=C(C1)NC1=C(C(=O)CC(C)C1)C2c1ccc(Cl)c(C(F)(F)F)c1 (stereo unspecified) | Dose-dependent effect |  | Dose-dependent effect |  | Dose-dependent effect |  | 
CC1CC(=O)C2=C(C1)NC1=C(C(=O)CC(C)C1)C2c1cc(C(F)(F)F)cc(Cl)c1F (stereo unspecified) | Dose-dependent effect |  | Dose-dependent effect |  | Dose-dependent effect |  | 
CC1CC(=O)C2=C(C1)NC1=C(C(=O)CC(C)C1)C2c1cc(C(F)(F)F)ccc1Cl (stereo unspecified) | Dose-dependent effect |  | Dose-dependent effect |  | Dose-dependent effect |  | 
CC1CC(=O)C2=C(C1)NC1=C(C(=O)CC(C)C1)C2c1cc(F)cc(C(F)(F)F)c1 (stereo unspecified) | Dose-dependent effect |  | Dose-dependent effect |  | Dose-dependent effect |  | 
CC(N/C(=N\C#N)Nc1ccncc1)C(C)(C)C (stereo unspecified) | Dose-dependent effect | 69.5 | Dose-dependent effect | 20.8 | Dose-dependent effect | 4.71 | 18.5

Continued, values first:

Activity [1] | Emax [2] [%] | Activity [3] | Emax [4] [%] | Activity [5] | pD2 [5] | Emax [6] [%] | SMILES
Dose-dependent effect | 59.5 | Dose-dependent effect | 23.8 | Dose-dependent effect | 4.6 | 21.8 | CC1CC(=O)C2=C(C1)NC1=C(C(=O)CC(C)C1)C2c1c(F)cccc1C(F)(F)F (stereo unspecified)
Dose-dependent effect | 57.4 | Dose-dependent effect | 27.2 | Dose-dependent effect | 4.12 | 27.7 | CC1CC(=O)C2=C(C1)NC1=C(C(=O)CC(C)C1)C2c1ccc(C(F)(F)F)cc1F (stereo unspecified)
Dose-dependent effect | 63 | Dose-dependent effect | 29 | Dose-dependent effect | 4.23 | 19.8 | CC1CC(=O)C2=C(C1)NC1=C(C(=O)CC(C)C1)C2c1cccc(C(F)(F)F)c1Cl (stereo unspecified)
Dose-dependent effect | 52.2 | Dose-dependent effect |  | Dose-dependent effect | 4.38 |  | CC1CC(=O)C2=C(C1)NC1=C(C(=O)CC(C)C1)C2c1c(C(F)(F)F)ccc(Cl)c1F (stereo unspecified)
Dose-dependent effect | 55 | Dose-dependent effect | 22.4 | Dose-dependent effect | 4.13 | 15.5 | CC1CC(=O)C2=C(C1)NC1=C(C(=O)CC(C)C1)C2c1ccc(F)c(C(F)(F)F)c1 (stereo unspecified)
Dose-dependent effect |  | Dose-dependent effect |  | Dose-dependent effect |  |  | CC1CC(=O)C2=C(C1)NC1=C(C(=O)CC(C)C1)C2c1cc(C(F)(F)F)ccc1F (stereo unspecified)
Dose-dependent effect |  | Dose-dependent effect |  | Dose-dependent effect |  |  | CC1CC(=O)C2=C(C1)NC1=C(C(=O)CC(C)C1)C2c1ccc(F)cc1C(F)(F)F (stereo unspecified)
Dose-dependent effect |  | Dose-dependent effect |  | Dose-dependent effect |  |  | CC1CC(=O)C2=C(C1)NC1=C(C(=O)CC(C)C1)C2c1cccc(C(F)(F)F)c1F (stereo unspecified)
